{
  "source": "PubChem BioAssay AID1259407",
  "about": "(Chemical Carcinogenesis Research Information System (CCRIS), 2018)",
  "tested_on": "CCRIS mutagenicity, Ames/micronucleus/aberration tests",
  "test": "CCRIS mutagenicity studies",
  "key": {"[1]": {"details": "Test System: AMES SALMONELLA TYPHIMURIUM, Strain/Indicator: TA98, Metabolic Activation: NONE, Method: STANDARD PLATE"}, "[2]": {"details": "Test System: AMES SALMONELLA TYPHIMURIUM, Strain/Indicator: TA100, Metabolic Activation: NONE, Method: PREINCUBATION"}, "[3]": {"details": "Test System: AMES SALMONELLA TYPHIMURIUM, Strain/Indicator: TA100, Metabolic Activation: NONE, Method: STANDARD PLATE"}, "[4]": {"details": "Test System: AMES SALMONELLA TYPHIMURIUM, Strain/Indicator: TA100, Metabolic Activation: S-9, Method: STANDARD PLATE"}, "[5]": {"details": "Test System: AMES SALMONELLA TYPHIMURIUM, Strain/Indicator: TA98, Metabolic Activation: NONE, Method: PREINCUBATION"}},
  "note": "Calls of active or inactive are those of the source. No rule for the calls is given here.",
  "data": [
    {"smiles": "CNC(=O)CSP(=S)(OC)OC", "values": [
      {"measurement": "mutagenic call", "setting": "End Point: In vitro chromosomal aberrations, Test System: Human lymphocytes, Metabolic Activation: None", "value": "active; positive (structural changes and ploidy)"},
      {"measurement": "mutagenic call", "setting": "Test System: AMES SALMONELLA TYPHIMURIUM, Strain/Indicator: G46, Metabolic Activation: HOST-MEDIATED, Method: STANDARD PLATE", "value": "active; positive"},
      {"measurement": "mutagenic call", "setting": "Test System: AMES SALMONELLA TYPHIMURIUM, Strain/Indicator: TA97A, Metabolic Activation: NONE, Method: STANDARD PLATE", "value": "inactive; negative"},
      {"measurement": "mutagenic call", "setting": "Test System: AMES SALMONELLA TYPHIMURIUM, Strain/Indicator: TA97A, Metabolic Activation: PLANT, HOMOGENATE, S-14, Method: STANDARD PLATE", "value": "inactive; negative"},
      {"measurement": "mutagenic call", "setting": "Test System: AMES SALMONELLA TYPHIMURIUM, Strain/Indicator: TA97A, Metabolic Activation: S-9, Method: STANDARD PLATE", "value": "inactive; negative"},
      {"measurement": "mutagenic call", "setting": "[1]", "value": "inactive; negative"},
      {"measurement": "mutagenic call", "setting": "Test System: AMES SALMONELLA TYPHIMURIUM, Strain/Indicator: TA98, Metabolic Activation: PLANT, HOMOGENATE, S-14, Method: STANDARD PLATE", "value": "inactive; negative"},
      {"measurement": "mutagenic call", "setting": "Test System: AMES SALMONELLA TYPHIMURIUM, Strain/Indicator: TA98, Metabolic Activation: RAT, LIVER, S-9, Method: STANDARD PLATE", "value": "inactive; negative"},
      {"measurement": "mutagenic call", "setting": "Test System: AMES SALMONELLA TYPHIMURIUM, Strain/Indicator: TA98, Metabolic Activation: S-9, NADPH GENERATING SYSTEM, Method: STANDARD PLATE", "value": "inactive; negative"},
      {"measurement": "mutagenic call", "setting": "Test System: AMES SALMONELLA TYPHIMURIUM, Strain/Indicator: TA98, Metabolic Activation: S-9, Method: STANDARD PLATE", "value": "inactive; negative"},
      {"measurement": "mutagenic call", "setting": "Test System: AMES SALMONELLA TYPHIMURIUM, Strain/Indicator: TA98, Metabolic Activation: WHEAT SEEDLING, S-14, Method: STANDARD PLATE", "value": "inactive; negative"},
      {"measurement": "mutagenic call", "setting": "[2]", "value": "active; positive"},
      {"measurement": "mutagenic call", "setting": "[3]", "value": "inactive; negative"},
      {"measurement": "mutagenic call", "setting": "Test System: AMES SALMONELLA TYPHIMURIUM, Strain/Indicator: TA100, Metabolic Activation: PLANT, HOMOGENATE, S-14, Method: STANDARD PLATE", "value": "inactive; negative"},
      {"measurement": "mutagenic call", "setting": "[4]", "value": "inactive; negative"},
      {"measurement": "mutagenic call", "setting": "Test System: AMES SALMONELLA TYPHIMURIUM, Strain/Indicator: TA100, Metabolic Activation: S-9 MIX, Method: STANDARD PLATE", "value": "active; positive"},
      {"measurement": "mutagenic call", "setting": "Test System: AMES SALMONELLA TYPHIMURIUM, Strain/Indicator: TA102, Metabolic Activation: NONE, Method: STANDARD PLATE", "value": "inactive; negative"},
      {"measurement": "mutagenic call", "setting": "Test System: AMES SALMONELLA TYPHIMURIUM, Strain/Indicator: TA102, Metabolic Activation: RAT, LIVER, S-9, Method: STANDARD PLATE", "value": "inactive; negative"},
      {"measurement": "mutagenic call", "setting": "Test System: AMES SALMONELLA TYPHIMURIUM, Strain/Indicator: TA102, Metabolic Activation: S-9, NADPH GENERATING SYSTEM, Method: STANDARD PLATE", "value": "inactive; negative"},
      {"measurement": "mutagenic call", "setting": "Test System: AMES SALMONELLA TYPHIMURIUM, Strain/Indicator: TA102, Metabolic Activation: WHEAT SEEDLING, S-14, Method: STANDARD PLATE", "value": "inactive; negative"},
      {"measurement": "mutagenic call", "setting": "Test System: AMES SALMONELLA TYPHIMURIUM, Strain/Indicator: TA1535, Metabolic Activation: NONE, Method: STANDARD PLATE", "value": "inactive; negative"},
      {"measurement": "mutagenic call", "setting": "Test System: AMES SALMONELLA TYPHIMURIUM, Strain/Indicator: TA1535, Metabolic Activation: PLANT, HOMOGENATE, S-14, Method: STANDARD PLATE", "value": "inactive; negative"},
      {"measurement": "mutagenic call", "setting": "Test System: AMES SALMONELLA TYPHIMURIUM, Strain/Indicator: TA1535, Metabolic Activation: RAT, LIVER, S-9, Method: STANDARD PLATE", "value": "inactive; negative"},
      {"measurement": "mutagenic call", "setting": "Test System: AMES SALMONELLA TYPHIMURIUM, Strain/Indicator: TA1535, Metabolic Activation: S-9, NADPH GENERATING SYSTEM, Method: STANDARD PLATE", "value": "inactive; negative"},
      {"measurement": "mutagenic call", "setting": "Test System: AMES SALMONELLA TYPHIMURIUM, Strain/Indicator: TA1535, Metabolic Activation: S-9, Method: STANDARD PLATE", "value": "inactive; negative"},
      {"measurement": "mutagenic call", "setting": "Test System: AMES SALMONELLA TYPHIMURIUM, Strain/Indicator: TA1535, Metabolic Activation: WHEAT SEEDLING, S-14, Method: STANDARD PLATE", "value": "inactive; negative"},
      {"measurement": "mutagenic call", "setting": "Test System: AMES SALMONELLA TYPHIMURIUM, Strain/Indicator: TA1537, Metabolic Activation: NONE, Method: STANDARD PLATE", "value": "inactive; negative"},
      {"measurement": "mutagenic call", "setting": "Test System: AMES SALMONELLA TYPHIMURIUM, Strain/Indicator: TA1537, Metabolic Activation: S-9, NADPH GENERATING SYSTEM, Method: STANDARD PLATE", "value": "inactive; negative"}
    ]},
    {"smiles": "Cc1cc2ccccc2c2cc3c(cc12)C=C[C@H](O)[C@H]3O", "values": [
      {"measurement": "mutagenic call", "setting": "Test System: AMES SALMONELLA TYPHIMURIUM, Strain/Indicator: TA100, Metabolic Activation: RAT, LIVER, S-9, AROCLOR 1254, Method: PREINCUBATION", "value": "active; positive"}
    ]},
    {"smiles": "CC(C)C(=O)N=c1sn(C(=O)C(C)C)c2ccc([N+](=O)[O-])cc12", "values": [
      {"measurement": "mutagenic call", "setting": "[4]", "value": "active; positive"}
    ]},
    {"smiles": "Cc1cccc2c1cc(C)c1c3c(ccc12)C(O)C(O)C1OC31", "note": "(configuration not stated)", "values": [
      {"measurement": "mutagenic call", "setting": "[2]", "value": "active; positive"},
      {"measurement": "mutagenic call", "setting": "[3]", "value": "active; positive"}
    ]},
    {"smiles": "Cc1c(N)cccc1N=Nc1cccc(N)c1C", "values": [
      {"measurement": "mutagenic call", "setting": "[5]", "value": "inactive; negative"},
      {"measurement": "mutagenic call", "setting": "Test System: AMES SALMONELLA TYPHIMURIUM, Strain/Indicator: TA98, Metabolic Activation: RAT, LIVER, S-9, PHENOBARBITAL AND 5,6-BENZOFLAVONE, Method: PREINCUBATION", "value": "active; positive"},
      {"measurement": "mutagenic call", "setting": "[2]", "value": "inactive; negative"},
      {"measurement": "mutagenic call", "setting": "Test System: AMES SALMONELLA TYPHIMURIUM, Strain/Indicator: TA100, Metabolic Activation: RAT, LIVER, S-9, PHENOBARBITAL AND 5,6-BENZOFLAVONE, Method: PREINCUBATION", "value": "active; positive"}
    ]},
    {"smiles": "CCN(CC)CCCC(C)Nc1cc(OC)cc2cccnc12", "note": "(configuration not stated)", "values": [
      {"measurement": "mutagenic call", "setting": "Test System: AMES SALMONELLA TYPHIMURIUM, Strain/Indicator: TA97, Metabolic Activation: NONE, Method: PREINCUBATION", "value": "inactive; negative"},
      {"measurement": "mutagenic call", "setting": "Test System: AMES SALMONELLA TYPHIMURIUM, Strain/Indicator: TA97, Metabolic Activation: RAT, LIVER, S-9, PHENOBARBITAL AND BETA-NAPHTHOFLAVONE, Method: PREINCUBATION", "value": "inactive; negative"},
      {"measurement": "mutagenic call", "setting": "[5]", "value": "active; positive"},
      {"measurement": "mutagenic call", "setting": "Test System: AMES SALMONELLA TYPHIMURIUM, Strain/Indicator: TA98, Metabolic Activation: RAT, LIVER, S-9, PHENOBARBITAL AND BETA-NAPHTHOFLAVONE, Method: PREINCUBATION", "value": "inactive; negative"},
      {"measurement": "mutagenic call", "setting": "[2]", "value": "inactive; negative"},
      {"measurement": "mutagenic call", "setting": "Test System: AMES SALMONELLA TYPHIMURIUM, Strain/Indicator: TA100, Metabolic Activation: RAT, LIVER, S-9, PHENOBARBITAL AND BETA-NAPHTHOFLAVONE, Method: PREINCUBATION", "value": "inactive; negative"},
      {"measurement": "mutagenic call", "setting": "Test System: AMES SALMONELLA TYPHIMURIUM, Strain/Indicator: TA102, Metabolic Activation: NONE, Method: PREINCUBATION", "value": "inactive; negative"},
      {"measurement": "mutagenic call", "setting": "Test System: AMES SALMONELLA TYPHIMURIUM, Strain/Indicator: TA102, Metabolic Activation: RAT, LIVER, S-9, PHENOBARBITAL AND BETA-NAPHTHOFLAVONE, Method: PREINCUBATION", "value": "inactive; negative"},
      {"measurement": "mutagenic call", "setting": "Test System: E.COLI, Strain/Indicator: WP2UVRA/PKM101, Metabolic Activation: NONE, Method: PREINCUBATION", "value": "inactive; negative"},
      {"measurement": "mutagenic call", "setting": "Test System: E.COLI, Strain/Indicator: WP2UVRA/PKM101, Metabolic Activation: RAT LIVER S-9, PHENOBARBITAL AND 5,6-BENZOFLAVONE, Method: PREINCUBATION", "value": "inactive; negative"}
    ]},
    {"smiles": "Cc1c([N+](=O)[O-])cc(C)c2c1c1ccccc1n2C", "values": [
      {"measurement": "mutagenic call", "setting": "[1]", "value": "active; positive"},
      {"measurement": "mutagenic call", "setting": "Test System: AMES SALMONELLA TYPHIMURIUM, Strain/Indicator: TA98, Metabolic Activation: RAT LIVER S-9, AROCLOR 1254, Method: STANDARD PLATE", "value": "active; positive"},
      {"measurement": "mutagenic call", "setting": "[3]", "value": "active; positive"},
      {"measurement": "mutagenic call", "setting": "Test System: AMES SALMONELLA TYPHIMURIUM, Strain/Indicator: TA100, Metabolic Activation: RAT LIVER S-9, AROCLOR 1254, Method: STANDARD PLATE", "value": "active; positive"}
    ]},
    {"smiles": "O[C@@H]1C=Cc2c(cc3ccc4cccc5c6ccccc6c2c3c45)[C@H]1O", "values": [
      {"measurement": "mutagenic call", "setting": "Test System: CHINESE HAMSTER V-79, Strain/Indicator: V-79 (HPRT)/6-THIOGUANINE, Metabolic Activation: HUMAN MAMMARY CARCINOMA MCF-7 CELLS", "value": "active; positive"},
      {"measurement": "mutagenic call", "setting": "Test System: CHINESE HAMSTER V-79, Strain/Indicator: V-79, Metabolic Activation: RAT, LIVER, S-9, AROCLOR 1254", "value": "active; positive"}
    ]}
  ]
}
